Numbered stars: 1 amine (or outer) side, 2 acyl side, 3 side chain; on linkers, the order of the positions; unused ones are H or OH. Square brackets hold non-standard residues; d marks the D form. Side chains are listed from the residue outwards. * marks the point of attachment. C18 diacid = O=C(O)CCCCCCCCCCCCCCCCC(=O)*; γGlu = O=C(O)[C@H](CCC(=O)[*:2])N[*:1]; AEEA = NCCOCCOCC(=O)O; Aib = CC(C)(N)C(=O)O
Key:
[1] = biological target: T1, human GIP receptor (hGIPR) (Homo sapiens, UniProt P48546); experiment: GIP receptor assay, method B (CRE-luciferase reporter, BHK cells, 384-well); format: cell-based
T1 construct: expressed in transfected cells
T1 sequence (P48546 22-466): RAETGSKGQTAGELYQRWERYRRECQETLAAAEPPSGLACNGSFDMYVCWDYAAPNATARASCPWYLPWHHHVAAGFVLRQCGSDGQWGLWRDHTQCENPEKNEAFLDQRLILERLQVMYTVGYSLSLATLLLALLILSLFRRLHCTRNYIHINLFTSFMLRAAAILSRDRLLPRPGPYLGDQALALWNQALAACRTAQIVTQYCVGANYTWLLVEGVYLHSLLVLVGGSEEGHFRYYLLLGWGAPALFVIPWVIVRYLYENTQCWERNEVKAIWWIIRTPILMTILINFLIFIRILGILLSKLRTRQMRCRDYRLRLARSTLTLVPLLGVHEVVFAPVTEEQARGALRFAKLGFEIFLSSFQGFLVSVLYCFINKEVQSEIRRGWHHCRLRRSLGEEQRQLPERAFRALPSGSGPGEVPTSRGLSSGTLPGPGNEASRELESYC

[2] = biological target: T2, human GLP-1 receptor (hGLP-1R) (Homo sapiens, UniProt P43220); experiment: GLP-1 receptor assay, method B (CRE-luciferase reporter, BHK cells, 384-well); format: cell-based; conditions: hGLP-1R Potency, 1% HSA, EC50, methods B, in the presence of 1% HSA
T2 construct: expressed in transfected cells
Method: Cells at approximately 80-90% confluence were washed once in PBS (Gibco 14190-094) and loosened from the cell flasks with Versene (Gibco, 15040-033). […] Cells were aliquoted and stored at −180° C. until use.
The assay buffer consisted of DMEM without phenol red (Gibco, 11880-028) supplemented with 1× GlutaMAX (Gibco, 35050-038), 10 mM HEPES (Gibco, 15630-056), 1% (w/v) ovalbumin (Sigma, A5503) and 0.1% (v/v) Pluronic F-68 (Gibco, 24040-032) either with HSA or without HSA (Sigma, A9511).
Serial dilutions were transferred to a 384-well assay plate (PerkinElmer/Revvity, 6007688) and mixed with an equal volume (10 μL) of assay buffer without or with 3% (w/v) HSA (Sigma, A-9511). Frozen stocks of hGLP-1R BHK Cre-Luc cells were thawed in a 37° C. water bath, washed once in PBS (Gibco 14190-094), diluted to 1.5×10^5 (1.5E+5) cells/mL in assay buffer (without HSA) and added (10 μL) to each well of the 384-well assay plate. After a short centrifugation, the assay plates were incubated for 3 hours at 37° C. in 5% CO2 and let to equilibrated at room temperature for 10 minutes before the addition of 30 μL steadylite Plus™ PerkinElmer/Revvity, 6066759) per well. Plates were sealed and incubated at room temperature with gentle shaking for 30 minutes while protected from light. Luminescence was detected on a luminescence plate reader e.g. a Synergy 2 (BioTek).

[3] = biological target: T3, human amylin receptor (hAMYR3) (Homo sapiens, UniProt O60896+P30988); experiment: Amylin receptor assay, method B (CRE-luciferase reporter, BHK cells); format: cell-based
T3 construct: host or cells: BHK cells (Hollex-1 line expressing hCTR(a) and CRE-Luc), further transfected with human RAMP3
Method: To assess how the activation of the receptors is potentially influenced by the presence of human serum albumin (HSA), the in vitro assays were performed in the absence of HSA and presence of 1% (w/v) HSA.
It is thus possible to measure hAMYR3 activity using a CRE-luciferase reporter gene introduced into Baby Hamster Kidney (BHK) cells co-expressing the hAMYR3.
The cell line was further transfected with human receptor modifying protein 3 (RAMP3) using standard methods.
After centrifugation, the cell pellet was resuspended and diluted to approximately 2.5-4.0×10^6 (2.5E+6 to 4.0E+6) cells/mL in Recovery™ Cell Culture Freezing Medium (Gibco, 12648-010). Cells were aliquoted and stored at −180° C. until use.
The assay buffer consisted of DMEM without phenol red (Gibco, 11880-028) supplemented with 1× GlutaMAX (Gibco, 35050-038), 10 mM HEPES (Gibco, 15630-056) and 1% (w/v) ovalbumin (Sigma, A5503) either with or without 0.1% (v/v) Pluronic F-68 (Gibco, 24040-032) and either with or without HSA (Sigma, A9511).
To perform the assay, hAMYR3 BHK Cre-Luc cells were thawed, washed once in PBS (Gibco 14190-094) and seeded in 40 μL growth medium in a white 384-well culture plate (PerkinElmer/Revvity, 6007688) at a cell density of 4.0×10^3 (4.0E+3) cells/well the day before the experiment. The plate was incubated over night at 37° C. in 5% CO2. […] Serial dilutions were then mixed in a new 96-well plate with equal volume (1:1:1 ratio) of assay buffer and either assay buffer without or with 3% HSA (Sigma, A-9511). Twenty microliters of the solution mix were transferred to the cells which previously were washed once with PBS (Gibco 14190-094). After a short centrifugation, the assay plates were incubated for 3 hours at 37° C. in 5% CO2 and let to equilibrated at room temperature for 10 minutes before the addition of 30 μL steadylite Plus™ PerkinElmer/Revvity, 6066759) per well. Plates were sealed and incubated at room temperature with gentle shaking for 30 minutes while protected from light. Luminescence was detected on a luminescence plate reader e.g., a Synergy 2 (BioTek).

[4] = biological target: T3, human amylin receptor (hAMYR3); experiment: Amylin receptor assay, method A (CRE-luciferase reporter, BHK cells); format: cell-based
[5] = Chemical stability assessment in formulation (UPLC-UV-MS purity loss at 37° C.); format: physicochemical; conditions: 8 mM phosphate buffer pH 7.4, 1 mg/mL, 2 weeks
Outline: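 Degradation tracked by UPLC-UV-MS (formic acid/acetonitrile gradient) on samples drawn over 2 weeks at 37° C. Solutions were made at a 1 mg/mL target in 8 mM phosphate, pH 7.4, kept in sealed vials and frozen after sampling.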

[6] = biological target: T1, human GIP receptor (hGIPR); experiment: GIP receptor assay, method A (CRE-luciferase reporter, BHK cells); format: cell-based
Outline: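 BHK cells co-expressing hGIPR and a CRE-luciferase reporter were stimulated for 3 h at 37 °C with a 7-point, 10-fold compound titration in duplicate. Buffer was DMEM, 10 mM HEPES, 1% ovalbumin, 0.1% Pluronic F-68, without HSA or with 1% (w/v) HSA. EC50 [pM] came from four-parameter logistic fits of luminescence.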

[7] = biological target: T2, human GLP-1 receptor (hGLP-1R); experiment: GLP-1 receptor assay, method A (CRE-luciferase reporter, BHK cells); format: cell-based
Outline: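 BHK cells expressing hGLP-1R with CRE-luciferase reporter, stimulated 3 h at 37 °C, 5% CO2, in phenol-red-free DMEM with 10 mM HEPES, 1% ovalbumin, 0.1% Pluronic F-68, without or with 1% (w/v) HSA. Receptor activation read as luminescence after 30 min with steadylite Plus.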

[8] = hAMYR3 Potency, 1% HSA, EC50, method A, in the presence of 1% HSA
[9] = method A, absence of HSA, read-out: hAMYR3 Potency, no HSA, EC50
[10] = hGIPR Potency, 1% HSA, EC50, method A, in the presence of 1% HSA
[11] = method A, absence of HSA, read-out: hGIPR Potency, no HSA, EC50
[12] = hGLP-1R Potency, 1% HSA, EC50, method A, in the presence of 1% HSA
[13] = method A, absence of HSA, read-out: hGLP-1R Potency, no HSA, EC50

T2 sequence (P43220 24-463): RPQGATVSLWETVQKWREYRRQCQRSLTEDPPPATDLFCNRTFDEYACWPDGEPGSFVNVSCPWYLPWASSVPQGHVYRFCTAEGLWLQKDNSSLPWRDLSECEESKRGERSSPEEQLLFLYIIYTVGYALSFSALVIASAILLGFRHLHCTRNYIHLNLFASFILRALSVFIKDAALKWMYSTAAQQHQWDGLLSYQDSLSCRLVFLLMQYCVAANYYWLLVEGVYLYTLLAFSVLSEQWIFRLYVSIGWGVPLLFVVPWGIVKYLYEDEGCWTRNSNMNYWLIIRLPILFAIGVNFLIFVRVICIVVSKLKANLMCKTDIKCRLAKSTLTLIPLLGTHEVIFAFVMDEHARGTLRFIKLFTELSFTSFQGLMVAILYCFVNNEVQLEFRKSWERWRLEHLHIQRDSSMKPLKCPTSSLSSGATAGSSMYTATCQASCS
T3 sequence (P30988 25-474): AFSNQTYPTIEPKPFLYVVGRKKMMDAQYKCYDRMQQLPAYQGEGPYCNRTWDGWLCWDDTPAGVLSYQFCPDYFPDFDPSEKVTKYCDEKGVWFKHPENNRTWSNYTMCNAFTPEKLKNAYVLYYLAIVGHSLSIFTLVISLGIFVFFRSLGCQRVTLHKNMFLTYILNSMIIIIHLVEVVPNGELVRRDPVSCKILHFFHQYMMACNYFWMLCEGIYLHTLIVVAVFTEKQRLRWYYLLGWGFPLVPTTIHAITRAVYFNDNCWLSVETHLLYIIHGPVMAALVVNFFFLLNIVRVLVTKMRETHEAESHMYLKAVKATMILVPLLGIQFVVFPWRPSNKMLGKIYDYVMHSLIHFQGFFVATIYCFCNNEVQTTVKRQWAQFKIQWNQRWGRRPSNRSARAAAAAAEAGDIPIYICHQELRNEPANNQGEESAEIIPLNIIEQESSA
T3 sequence (O60896 24-148): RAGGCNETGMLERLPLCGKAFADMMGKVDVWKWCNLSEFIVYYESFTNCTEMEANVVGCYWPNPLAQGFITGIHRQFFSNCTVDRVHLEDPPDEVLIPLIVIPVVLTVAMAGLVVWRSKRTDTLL

CC[C@H](C)[C@H](NC(=O)[C@H](CCC(=O)O)NC(=O)[C@H](CCC(=O)O)NC(=O)[C@H](CC(C)C)NC(=O)[C@H](CC(C)C)NC(=O)[C@@H](NC(=O)[C@H](CO)NC(=O)[C@H](Cc1ccc(O)cc1)NC(=O)[C@H](CC(=O)O)NC(=O)[C@H](CO)NC(=O)[C@@H](NC(=O)[C@H](Cc1ccccc1)NC(=O)[C@@H](NC(=O)CNC(=O)[C@H](CCC(=O)O)NC(=O)C(C)(C)NC(=O)[C@@H](N)Cc1ccc(O)cc1)[C@@H](C)O)[C@@H](C)O)[C@@H](C)CC)C(=O)N[C@@H](C)C(=O)N[C@@H](C)C(=O)N[C@@H](CCCNC(=N)N)C(=O)N[C@@H](CCC(=O)O)C(=O)N[C@@H](Cc1ccccc1)C(=O)N[C@H](C(=O)N[C@@H](CCC(=O)O)C(=O)N[C@@H](Cc1c[nH]c2ccccc12)C(=O)N[C@@H](CC(C)C)C(=O)N[C@@H](CC(C)C)C(=O)N[C@@H](C)C(=O)NCC(=O)NCC(=O)N1CCC[C@H]1C(=O)N[C@@H](CO)C(=O)N[C@@H](CO)C(=O)NCC(=O)N[C@@H](C)C(=O)NCC(=O)N[C@@H](CCC(N)=O)C(=O)N[C@@H](C)C(=O)N1CCC[C@H]1C(=O)NCC(=O)N[C@@H](CCC(N)=O)C(=O)N[C@@H](C)C(=O)N1CCC[C@H]1C(=O)NCC(=O)N[C@@H](C)C(=O)N[C@@H](CO)C(=O)N[C@@H](Cc1c[nH]cn1)C(=O)N[C@@H](CC(C)C)C(=O)N[C@@H](CO)C(=O)N[C@H](C(=O)N[C@@H](C)C(=O)N[C@@H](CCC(N)=O)C(=O)N[C@H](C(=O)N[C@@H](CCC(N)=O)C(=O)N[C@@H](CCCNC(=N)N)C(=O)N[C@@H](CC(C)C)C(=O)N[C@@H](CO)C(=O)N[C@@H](C)C(=O)N[C@@H](CCC(=O)O)C(=O)N[C@@H](CC(C)C)C(=O)N[C@@H](Cc1c[nH]cn1)C(=O)N[C@@H](CCCCNC(=O)COCCOCCNC(=O)COCCOCCNC(=O)CC[C@H](NC(=O)CCCCCCCCCCCCCCCCCCC(=O)O)C(=O)O)C(=O)N[C@@H](CC(C)C)C(=O)N[C@@H](C)C(=O)N[C@H](C(=O)N[C@@H](CC(C)C)C(=O)N1CCC[C@H]1C(=O)N[C@@H](CCCNC(=N)N)C(=O)N[C@H](C(=O)N[C@@H](CCC(=O)O)C(=O)N[C@H](C(=O)NCC(=O)N[C@@H](CO)C(=O)NCC(=O)N[C@@H](CO)C(=O)N1CCC[C@H]1C(N)=O)[C@@H](C)O)[C@@H](C)O)[C@@H](C)O)[C@@H](C)O)[C@@H](C)O)[C@@H](C)CC [Compound 120]
EC50 ([1]; hGIPR Potency, 1% HSA, EC50, methods B, in the presence of 1% HSA): 20 pM
EC50 ([1]; method B, absence of HSA, read-out: hGIPR Potency, no HSA, EC50): 2.9 pM
EC50 [2]: 129 pM
EC50 ([3]; hAMYR3 Potency, 1% HSA, EC50, methods B, in the presence of 1% HSA): 774 pM
EC50 ([3]; method B, absence of HSA, read-out: hAMYR3 Potency, no HSA, EC50): 6.31 pM

H[Aib]HGTFTSDYSILLEEQAAREFIEWLLAGGPSK([AEEA-AEEA-γGlu-C18 diacid])GAGQAPGQAPGASHLSTAQTQRLSAELHELATLPRTETGSGSP-NH2 [Compound 47]
EC50 [4, 8]: 55.8 pM
EC50 [4, 9]: 2.57 pM
Purity loss per week at 37° C. [5]: 2.6%
EC50 [6, 10]: 162 pM
EC50 [6, 11]: 2.02 pM
EC50 [7, 12]: 67.5 pM
EC50 [7, 13]: 3.15 pM

H[Aib]HGTFTSDYSILLEEQAAREFIEWLLAGGPSK([AEEA-AEEA-γGlu-C18 diacid])GEASQLSTAALGRLSAELHGLATLPRTETGSGSP-NH2 [Compound 65]
EC50 [4, 8]: 127 pM
EC50 [4, 9]: 2.84 pM
Purity loss per week at 37° C. [5]: 2.1%
EC50 [6, 10]: 118 pM
EC50 [6, 11]: 1.89 pM
EC50 [7, 12]: 100 pM
EC50 [7, 13]: 4.86 pM

H[Aib]HGTFTSDYSILLEEQAAREFIEWLLAGGPSK([AEEA-AEEA-γGlu-C18 diacid])GEASQLSTAALGRLSAELHRLATLPRTETGSGSP-NH2 [Compound 73]
EC50 [4, 8]: 61.5 pM
EC50 [4, 9]: 1.99 pM
Purity loss per week at 37° C. [5]: 2.8%
EC50 [6, 10]: 96.5 pM
EC50 [6, 11]: 4.98 pM
EC50 [7, 12]: 54.1 pM
EC50 [7, 13]: 4.55 pM

H[Aib]HGTFTSDYSILLEEQAAREFIEWLLAGGPSSGAGQAPGQAPGASHLSTAQTQRLSAELHRLATLPK([AEEA-AEEA-γGlu-C18 diacid])TETGSGSP-NH2 [Compound 92]
EC50 [4, 8]: 75.1 pM
EC50 [4, 9]: 2.64 pM
Purity loss per week at 37° C. [5]: 2.8%
EC50 [6, 10]: 8.53 pM
EC50 [6, 11]: 3.12 pM
EC50 [7, 12]: 13.4 pM
EC50 [7, 13]: 2.55 pM

H[Aib]HGTFTSDYSILLEEQAAREFIEWLLAGGPSSGEASHLSTAQTQRLSAELHK([AEEA-AEEA-γGlu-C18 diacid])LATLPRTETGSGAP-NH2 [Compound 85]
EC50 [4, 8]: 250 pM
EC50 [4, 9]: 4.4 pM
Purity loss per week at 37° C. [5]: 2.0%
EC50 [6, 10]: 14.6 pM
EC50 [6, 11]: 2.71 pM
EC50 [7, 12]: 30.3 pM
EC50 [7, 13]: 3.52 pM

H[Aib]HGTFTSDYSILLEEQAAREFIEWLLAGGPSSGEASHLSTAQTQRLSAELHRLATLPK([AEEA-AEEA-γGlu-C18 diacid])TETGSGSP-NH2 [Compound 84]
EC50 [4, 8]: 175 pM
EC50 [4, 9]: 4.41 pM
Purity loss per week at 37° C. [5]: 2.9%
EC50 [6, 10]: 11.6 pM
EC50 [6, 11]: 3 pM
EC50 [7, 12]: 25.9 pM
EC50 [7, 13]: 3.31 pM

H[Aib]HGTFTSDYSILLEEQAAREFIEWLLAGGPSSGEASHLSTAQTQRLSAELHRLK([AEEA-AEEA-γGlu-C18 diacid])TLPRTETGSGSP-NH2 [Compound 83]
EC50 [4, 8]: 45.7 pM
EC50 [4, 9]: 2.9 pM
Purity loss per week at 37° C. [5]: 2.3%
EC50 [6, 10]: 13.6 pM
EC50 [6, 11]: 2.92 pM
EC50 [7, 12]: 9.89 pM
EC50 [7, 13]: 2.3 pM
